Toxic doses and inconclusive results are not listed. Rule as the data show it: active = T/C of 150% or more; inactive = T/C below 125%.
System: L1210 leukemia ip in BDF1 mice, survival T/C
Experiment: NCI In Vivo Anticancer Drug Screen. Data for tumor model L1210 Leukemia (intraperitoneal) in B6D2F1 (BDF1) mice
Details: endpoint: mean survival time, higher = longer survival
Outline: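 Each compound was tested against a transplantable tumor grown in mice. The endpoint was survival, with treated animals benchmarked against vehicle controls as a simple ratio.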

[1] = dose: 100.0 mg/kg/injection, schedule: Q01DX009 (ip), vehicle: saline with Tween-80
[2] = dose: 200.0 mg/kg/injection, schedule: Q01DX009 (ip), vehicle: saline with Tween-80
[3] = dose: 100.0 mg/kg/injection, schedule: Q04DX003 (ip), vehicle: saline with Tween-80
[4] = dose: 200.0 mg/kg/injection, schedule: Q04DX003 (ip), vehicle: saline with Tween-80
[5] = dose: 400.0 mg/kg/injection, schedule: Q04DX003 (ip), vehicle: saline with Tween-80
[6] = dose: 50.0 mg/kg/injection, schedule: Q01DX009 (ip), vehicle: saline
[7] = dose: 100.0 mg/kg/injection, schedule: Q01DX009 (ip), vehicle: saline

Measured: T/C

Cn1c(=O)c2c(ncn2C)n(C)c1=O
inactive: dose: 25.0 mg/kg/injection, schedule: Q01DX Z (ip), vehicle: saline 92 % of control | dose: 50.0 mg/kg/injection, schedule: Q01DX Z (ip), vehicle: saline 90 % of control | [1] 93 % of control | dose: 100.0 mg/kg/injection, schedule: Q01DX Z (ip), vehicle: saline 92 % of control | dose: 115.0 mg/kg/injection, schedule: Q01DX001 (ip), vehicle: saline 97 % of control | dose: 175.0 mg/kg/injection, schedule: Q01DX001 (ip), vehicle: saline 111 % of control | [2] 95 % of control | dose: 200.0 mg/kg/injection, schedule: Q01DX Z (ip), vehicle: saline 90 % of control | dose: 265.0 mg/kg/injection, schedule: Q01DX001 (ip), vehicle: saline 103 % of control

Cc1ccc(NC(=O)Oc2ccc(Br)cc2)c([N+](=O)[O-])c1
inactive: dose: 100.0 mg/kg/injection, schedule: Q04DX002 (ip), vehicle: Klucel (hydroxypropylcellulose) (HPC) 99 % of control | dose: 200.0 mg/kg/injection, schedule: Q04DX002 (ip), vehicle: Klucel (hydroxypropylcellulose) (HPC) 115 % of control | dose: 400.0 mg/kg/injection, schedule: Q04DX002 (ip), vehicle: Klucel (hydroxypropylcellulose) (HPC) 92 % of control

NC(N)=Nc1ccc(C(=O)O)cc1
inactive: [1] 107 % of control | [2] 103 % of control

CC(C)CCCC(C)C1CCC2C3CC=C4CC(OCCCl)CCC4(C)C3CCC12C (centres undefined)
inactive: [3] 96 % of control | [4] 96 % of control | [5] 93 % of control

NCCc1ccc(OCc2ccccc2)c(OCc2ccccc2)c1
inactive: dose: 12.5 mg/kg/injection, schedule: Q01DX009 (ip), vehicle: saline 108 % of control | dose: 12.5 mg/kg/injection, schedule: Q04DX003 (ip), vehicle: saline 98 % of control | dose: 25.0 mg/kg/injection, schedule: Q01DX009 (ip), vehicle: saline 97 % of control | dose: 25.0 mg/kg/injection, schedule: Q04DX003 (ip), vehicle: saline 102 % of control | dose: 50.0 mg/kg/injection, schedule: Q04DX003 (ip), vehicle: saline 98 % of control

OCCCCCCCCCCCC[n+]1ccccc1
inactive: dose: 87.5 mg/kg/injection, schedule: Q01DX001 (ip), vehicle: saline 105 % of control

COc1ccc(NC(=O)Oc2ccc(F)cc2Cl)c(OC)c1
inactive: dose: 100.0 mg/kg/injection, schedule: Q01DX009 (ip), vehicle: Klucel (hydroxypropylcellulose) (HPC) 97 % of control | dose: 200.0 mg/kg/injection, schedule: Q01DX009 (ip), vehicle: Klucel (hydroxypropylcellulose) (HPC) 95 % of control | dose: 400.0 mg/kg/injection, schedule: Q01DX009 (ip), vehicle: Klucel (hydroxypropylcellulose) (HPC) 101 % of control

O=c1c(N(CCO)CCO)cn(C(c2ccccc2)(c2ccccc2)c2ccccc2)c(=O)n1C(c1ccccc1)(c1ccccc1)c1ccccc1
inactive: dose: 50.0 mg/kg/injection, schedule: Q01DX001 (ip), vehicle: carboxymethylcellulose (CMC) 104 % of control | dose: 100.0 mg/kg/injection, schedule: Q01DX001 (ip), vehicle: carboxymethylcellulose (CMC) 96 % of control | dose: 200.0 mg/kg/injection, schedule: Q01DX001 (ip), vehicle: carboxymethylcellulose (CMC) 100 % of control | dose: 400.0 mg/kg/injection, schedule: Q01DX001 (ip), vehicle: carboxymethylcellulose (CMC) 96 % of control

CC(=O)C1=C(c2ccccc2)C(=O)C(C(C)=O)=C(c2ccccc2)C1=O
inactive: dose: 100.0 mg/kg/injection, schedule: Q04DX003 (ip), vehicle: Klucel (hydroxypropylcellulose) (HPC) 100 % of control | dose: 200.0 mg/kg/injection, schedule: Q04DX003 (ip), vehicle: Klucel (hydroxypropylcellulose) (HPC) 100 % of control | dose: 400.0 mg/kg/injection, schedule: Q04DX003 (ip), vehicle: Klucel (hydroxypropylcellulose) (HPC) 96 % of control

NNP(=O)(Oc1ccccc1)Oc1ccccc1
inactive: [6] 108 % of control | dose: 75.0 mg/kg/injection, schedule: Q01DX001 (ip), vehicle: acetone 110 % of control | [7] 124 % of control | dose: 150.0 mg/kg/injection, schedule: Q01DX001 (ip), vehicle: acetone 103 % of control | dose: 300.0 mg/kg/injection, schedule: Q01DX001 (ip), vehicle: acetone 97 % of control

CC1=CC(=O)C(C)(C(Cl)Cl)C=C1 (centres undefined)
inactive: [3] 95 % of control | [4] 97 % of control

CCC(Cl)C(=O)Nc1ccccc1 (centres undefined)
inactive: dose: 50.0 mg/kg/injection, schedule: Q01DX001 (ip), vehicle: saline 96 % of control | dose: 100.0 mg/kg/injection, schedule: Q01DX001 (ip), vehicle: saline 108 % of control | dose: 200.0 mg/kg/injection, schedule: Q01DX001 (ip), vehicle: saline 102 % of control | dose: 400.0 mg/kg/injection, schedule: Q01DX001 (ip), vehicle: saline 104 % of control

Nc1cc(Cl)c2n[nH]nc2n1
inactive: dose: 75.0 mg/kg/injection, schedule: Q01DX001 (ip), vehicle: other 96 % of control | dose: 150.0 mg/kg/injection, schedule: Q01DX001 (ip), vehicle: other 102 % of control | dose: 300.0 mg/kg/injection, schedule: Q01DX001 (ip), vehicle: other 100 % of control

Nc1nc(=O)n(CCCOc2ccc([N+](=O)[O-])c(Cl)c2)cc1-c1ccc(Cl)c(Cl)c1
inactive: dose: 25.0 mg/kg/injection, schedule: Q01DX001 (ip), vehicle: saline with Tween-80 95 % of control | dose: 50.0 mg/kg/injection, schedule: Q01DX001 (ip), vehicle: saline with Tween-80 96 % of control | dose: 100.0 mg/kg/injection, schedule: Q01DX001 (ip), vehicle: saline with Tween-80 88 % of control

Cc1ccc[n+]2c1ccc1c3ccccc3ccc12
inactive: dose: 10.0 mg/kg/injection, schedule: Q01DX001 (ip), vehicle: saline 106 % of control

COc1ccc(OC)c(NC(=S)NC(=O)c2ccccc2F)c1
inactive: [1] 94 % of control | [2] 86 % of control

C=C1C(=O)OC2CCCCCCC12 (centres undefined)
inactive: [6] 95 % of control | [7] 95 % of control

CN(N)C(=O)Nc1ccc(Br)cc1
inactive: dose: 75.0 mg/kg/injection, schedule: Q01DX001 (ip), vehicle: carboxymethylcellulose (CMC) 104 % of control | dose: 150.0 mg/kg/injection, schedule: Q01DX001 (ip), vehicle: carboxymethylcellulose (CMC) 100 % of control | dose: 300.0 mg/kg/injection, schedule: Q01DX001 (ip), vehicle: carboxymethylcellulose (CMC) 98 % of control

CC(=O)N1C(=O)NC(=O)C1(C)c1ccc(Cl)s1 (centres undefined)
inactive: [1] 96 % of control | [3] 100 % of control | [2] 103 % of control | [4] 97 % of control | dose: 400.0 mg/kg/injection, schedule: Q01DX009 (ip), vehicle: saline with Tween-80 91 % of control | [5] 88 % of control

From PubChem BioAssay AID248 (DTP/NCI, 2004)
